Here are results for 18 compounds from patent US6153589A, “2,3-epoxy alcohols, acids and derivatives as anti retroviral chemotherapeutic agents” (The United States of America as represented by the …, priority 1992, dated 2000).

Structures are written as SMILES. Where two headings read alike, the source gives them in different places. Where a SMILES comes first, the peptide text is derived from it. [ ]: non-standard residue; d: D form. The star is where a group is joined. Sta = CC(C)C[C@H](N)[C@@H](O)CC(=O)O; Isovaleryl = CC(C)CC(=O)*

The subject of one test is HIV-2 protease. Put plainly: HIV protease cleavage of nonapeptide (HPLC). Type of test: biochemical. The conditions noted are these: 0.5 μl of 10 μg/μl inhibitor in DMSO per 10 μl reaction; pH 6.5, room temperature; pentapeptide product relative to DMSO control; sampled at ca. 16 and 40 hr (time not given). How it is done: Activity Against HIV Protease
The assay for proteolyic activity is a modified version of that previously described by Copeland et al., Gene Anal. Tech., 5:109-115 (1988). For each assay to be performed 2 microliters of protease solution (ca. 100 ng) is added to 3 μg of nonapeptide (Val-Ser-Gln-Asn-Tyr-Pro-Ile-Val-Gln-NH2) in 8 μl of 200 mM sodium phosphate, 1 M NaCl, 5% glycerol, 0.25% Nonidet-40, at pH 6.5. This affords a stock solution containing 10 μl per number of reactions. This stock is aliquoted out in 10 μl portions to which 0.5 μl of DMSO (a control is run with each set of assays to compensate for minor experimental variations) or a DMSO solution containing 10 μg/μl of an inhibitor, i.e., any one of the compounds of the present invention, is added. The reactions were incubated at room temperature and 4 μl portions were removed at ca. 16 and 40 hr. intervals. HPLC analysis was performed on a 4.6×250 mm Lichrosorb RP-18 column eluted with a gradient of 0-40% acetonitrile in water (containing 0.05% TFA) over 30 min monitoring absorbance at 206 nm. Progress of the enzymatic cleavage was followed by monitoring the appearance of the pentapeptide (Val-Ser-Gln-Asn-Tyr-OH) cleavage product. The activity is expressed as the amount of the pentapeptide (Val-Ser-Gln-Asn-Tyr-OH) observed relative to the control reaction for that set of assays.
Inhibition of HIV-2 protease

Another test has as its system HIV1 IIIb. Put plainly: microbe, parasite or virus in culture. Type of test: cell-based. The conditions noted are these: Human immunodeficiency virus 1, IIIB; for viability at 50 µg/mL: 50 ug/ml; for viability at 4.9 µg/mL: 4.9 ug/ml; for viability at 2.9 µg/mL: 2.9 ug/ml; for viability at 21 µg/mL: 21 ug/ml; for viability at 10 µg/mL: 10 ug/ml; for viability at 100 µg/mL: 100 ug/ml. From the text: In-vitro Screening Anti--HIV XTT Assay
This assay, which is available to the public by the National Cancer Institute, utilizes colorimetry based on the production of a colored formazin from a tetrazolium salt by viable cells, to develop a safe, rapid and quantitative measure of HIV cytopathology. The assay is a modification of the previously described screening method for the detection of anti-tumor drug cytotoxicity (D. A. Scudiero, et al, Cancer Res, 48, 4827-4833 (1988)). It involves the plating of susceptible human "host" cells with and without virus in microculture plates, adding various concentrations of the respective test compounds, incubating the plates for seven days, during which time infected, non-drug treated control cells are largely or totally destroyed by the virus. The number of remaining viable cells are determined utilizing a calorimetric endpoint. A beneficial antiviral effect is indicated by a response % grater than the virus kill %, with 100% being optimal.
Anti-viral effect: Response (Viable Cells, determined by colorometric
absorbance of formazan dye produced) as % of uninfected controls
Virus Source: HIV1 IIIb; C, Virus producing H9 cells; V, cell free virus
Virus Kill: Infected untreated cells as % of uninfected cell controls
*: Culture redosed with compound after 3 days

As to `CCCCCCCCCCC[C@@H]1O[C@@H]1CO` (relative stereo) [2-cis-Undecyloxirane methanol], in the test with HIV-2 protease, the “Percent Control Cleavage of Nonapeptide HIV-1 Cleavage Site Fragment” value (“Percent Control Cleavage” for short) is listed as 104%.

On to `CCCCCCCCCCC[C@H]1O[C@@H]1CO` (relative stereo) [2-trans-Undecyloxirane methanol], for which the “Percent Control Cleavage” value with HIV-2 protease was found to be 88%.

Turning to `CCCCCCC[C@H]1O[C@H]1C` (relative stereo) [Example 43, cis-2-Epoxydecene], in the test with HIV-2 protease, the “Percent Control Cleavage” value is reported as 102%.

As to `CCCCCCC/C=C\CO` [Example 3, cis-2-Decen-1-ol], the “Percent Control Cleavage” value in the test with HIV-2 protease was determined as 105%.

As for `CCCCCCCCC[C@@H]1O[C@@H]1CO` [Example 12, (2R-cis)-3-Nonyloxirane Methanol], the viability at 50 µg/mL with HIV1 IIIb (168 h, read-out: Antiviral Effect (viable cells as % of uninfected controls), run 8, source V (cell free virus), virus kill 27.0%) is 56.9%; in the test on HIV1 IIIb (H9, 168 h, read-out: Antiviral Effect (viable cells as % of uninfected controls), run 3, source C (virus producing H9 cells), virus kill 16.0%), 32.1%. Moreover, the viability at 4.9 µg/mL came to 82.4% in the test on HIV1 IIIb (168 h, read-out: Antiviral Effect (viable cells as % of uninfected controls), run 9, source V (cell free virus), virus kill 53.0%); 31.6% in the test with HIV1 IIIb (H9, 168 h, read-out: Antiviral Effect (viable cells as % of uninfected controls), run 4, source C (virus producing H9 cells), virus kill 16.0%); 16.7% with HIV1 IIIb (H9, 168 h, read-out: Antiviral Effect (viable cells as % of uninfected controls), run 6, source C (virus producing H9 cells), virus kill 11.0%). For the same compound, the viability at 2.9 µg/mL with HIV1 IIIb (168 h, read-out: Antiviral Effect (viable cells as % of uninfected controls), run 10, source V (cell free virus), virus kill 55.0%) amounted to 82.9%; in the test on HIV1 IIIb (168 h, read-out: Antiviral Effect (viable cells as % of uninfected controls), run 12, source V (cell free virus), virus kill 36.0%), 62.2%; in the test on HIV1 IIIb (H9, 168 h, read-out: Antiviral Effect (viable cells as % of uninfected controls), run 5, source C (virus producing H9 cells), virus kill 15.0%) it was 23.1%. Further, the viability at 49 µg/mL in the test on HIV1 IIIb (168 h, read-out: Antiviral Effect (viable cells as % of uninfected controls), run 11, 49 ug/ml, source V (cell free virus), virus kill 30.0%) amounted to 54.9%. In addition, the viability at 21 µg/mL in the test with HIV1 IIIb (168 h, read-out: Antiviral Effect (viable cells as % of uninfected controls), run 13, source V (cell free virus), virus kill 19.5%) is 53.4%; with HIV1 IIIb (168 h, read-out: Antiviral Effect (viable cells as % of uninfected controls), run 14, source V (cell free virus), virus kill 24.0%), 98.7%. The viability at 10 µg/mL in the test with HIV1 IIIb (H9, 168 h, read-out: Antiviral Effect (viable cells as % of uninfected controls), run 1, source C (virus producing H9 cells), virus kill 6.0%) turned out to be 75.1%; with HIV1 IIIb (H9, 168 h, read-out: Antiviral Effect (viable cells as % of uninfected controls), run 2, source C (virus producing H9 cells), virus kill 27.0%), 71.3%. Moreover, the viability at 29 µg/mL in the test on HIV1 IIIb (H9, 168 h, read-out: Antiviral Effect (viable cells as % of uninfected controls), run 7, 29 ug/ml, source C (virus producing H9 cells), virus kill 11.0%) came to 15.7%. Further, the “Percent Control Cleavage” value in the test with HIV-2 protease is 96%.

As for `COC(=O)[C@H]1O[C@H]1COCc1ccccc1` [Example 26, Methyl(2S-cis)-3-(benzyloxymethyl)oxirane carboxylate], the viability at 10 µg/mL in the test with HIV1 IIIb (168 h, read-out: Antiviral Effect (viable cells as % of uninfected controls), run 6, source V (cell free virus), virus kill 54.0%) was 58.7%; in the test on HIV1 IIIb (H9, 168 h, read-out: Antiviral Effect (viable cells as % of uninfected controls), run 1, source C (virus producing H9 cells), virus kill 17.0%), 20.8%; in the test on HIV1 IIIb (H9, 168 h, read-out: Antiviral Effect (viable cells as % of uninfected controls), run 2, source C (virus producing H9 cells), virus kill 13.2%) it was 39.4%; in the test on HIV1 IIIb (H9, 168 h, read-out: Antiviral Effect (viable cells as % of uninfected controls), run 4, source C (virus producing H9 cells), virus kill 12.0%) it was 13.8%. Moreover, the viability at 100 µg/mL is 81.3% in the test on HIV1 IIIb (168 h, read-out: Antiviral Effect (viable cells as % of uninfected controls), run 7, source V (cell free virus), virus kill 54.0%); 23.7% with HIV1 IIIb (168 h, read-out: Antiviral Effect (viable cells as % of uninfected controls), run 9, source V (cell free virus), virus kill 23.0%); 54% in the test on HIV1 IIIb (H9, 168 h, read-out: Antiviral Effect (viable cells as % of uninfected controls), run 3, source C (virus producing H9 cells), virus kill 13.2%); 16.3% in the test on HIV1 IIIb (H9, 168 h, read-out: Antiviral Effect (viable cells as % of uninfected controls), run 5, source C (virus producing H9 cells), virus kill 12.0%). Further, the viability at 1 µg/mL in the test with HIV1 IIIb (168 h, read-out: Antiviral Effect (viable cells as % of uninfected controls), run 8, 1 ug/ml, source V (cell free virus), virus kill 23.0%) worked out at 19.8%. The viability at 487 µg/mL in the test with HIV1 IIIb (168 h, read-out: Antiviral Effect (viable cells as % of uninfected controls), run 10, 487 ug/ml, source V (cell free virus), virus kill 30.0%) was 28.1%. Also, in the test on HIV1 IIIb (168 h, read-out: Antiviral Effect (viable cells as % of uninfected controls), run 11*, 0.487 ug/ml, source V (cell free virus), virus kill 25.0%, culture redosed with compound after 3 days), the viability at 0.487 µg/mL came out at 26.6%.

Consider `CCCCCCCCC[C@@H]1O[C@H]1CO` [Example 29, (2S-trans)-3-Nonyloxirane Methanol], for which, in the test on HIV-2 protease, the “Percent Control Cleavage” value came to 106%.

As for `CCCCCCCCC[C@H]1O[C@@H]1CO` [Example 30, (2R-trans)-3-Nonyloxirane Methanol], the “Percent Control Cleavage” value in the test with HIV-2 protease amounted to 105%.

As to `CCCCCCCCCCC[C@@H]1O[C@H]1CO` [Example 31, (2S-trans)-3-Undecyloxirane Methanol], the “Percent Control Cleavage” value in the test with HIV-2 protease was found to be 95%.

Turning to `CCCCCCCCCCC[C@H]1O[C@@H]1CO` [Example 32, (2R-trans)-3-Undecyloxirane Methanol], in the test with HIV-2 protease, the “Percent Control Cleavage” value is on record as 98%.

Turning to `CCCCCCC[C@@H]1O[C@H]1CO` [Example 33, (2S-trans)-3-heptyloxirane Methanol], in the test on HIV-2 protease, the “Percent Control Cleavage” value was 105%.

Turning to `CCCCCCC[C@H]1O[C@@H]1CO` [Example 34, (2R-trans)-3-Heptyloxirane Methanol], the “Percent Control Cleavage” value with HIV-2 protease was 104%.

With `CCCCCCC[C@H]1O[C@H]1C(=O)O` [Example 37, (2R-cis)-3-Heptyloxirane Carboxylic Acid], the “Percent Control Cleavage” value with HIV-2 protease was 104%.

As to `CCCCCCC[C@@H]1O[C@@H]1C(=O)O` [Example 38, (2S-cis)-3-Heptyloxiranecarboxylic Acid], the “Percent Control Cleavage” value in the test on HIV-2 protease is listed as 105%.

As for `CCCCCCCCC[C@H]1O[C@H]1C(=O)N1CCC[C@H]1C(=O)OC` [Example 41, N-(2R-cis)-3-Nonyloxiraneacyl L-proline Methyl Ester], the “Percent Control Cleavage” value in the test with HIV-2 protease was 24%.

Turning to `CCCCCCCCC[C@H]1O[C@H]1C(=O)N(CC)CC` [Example 42, N,N-Diethyl-(2R-cis)-3-nonyloxiranecarboxy Amide], in the test on HIV-2 protease, the “Percent Control Cleavage” value came out at 77%.

Regarding `CCCCCCCCCCCCCC(=O)O` [Myristic Acid, reference compound], the “Percent Control Cleavage” value in the test on HIV-2 protease was found to be 111%.

As for `CC(C)CC(=O)N[C@H](C(=O)N[C@H](C(=O)N[C@@H](CC(C)C)[C@@H](O)CC(=O)N[C@@H](C)C(=O)N[C@@H](CC(C)C)[C@@H](O)CC(=O)O)C(C)C)C(C)C` [Pepstatin A, reference compound] (Isovaleryl-VV[Sta]A[Sta]-OH), the “Percent Control Cleavage” value in the test with HIV-2 protease came out at 1%.
